Test results from PMC10035947, “Development of novel anilinoquinazoline-based carboxylic acids as non-classical carbonic anhydrase IX and XII inhibitors” (Journal of Enzyme Inhibition and Medicinal Chemistry, 2023).
Where two headings read alike, the source gives them in different places.

Experiments:
Test in all cases: NCI SRB assay
A498 = assay type: cell-based, human; conditions: for GI%: A498, 10 μM; for Growth Percent: A498, 1.00E-5 Molar; for CC50: read-out: LC50 (the source's name)
NCI-H460 = assay type: cell-based, human; conditions: for GI%: NCI-H460, 10 μM; for Growth Percent: NCI-H460, 1.00E-5 Molar
CAKI-1 = assay type: cell-based, human; conditions: for GI%: CAKI-1, 10 μM; for Growth Percent: CAKI-1, 1.00E-5 Molar; for CC50: read-out: LC50 (the source's name)
MDA-MB-231 = assay type: cell-based; conditions: for Growth Percent: 1.00E-5 Molar; for CC50: read-out: LC50 (the source's name); for GI%: MDA-MB-231, 10 μM
SF-539 = assay type: cell-based, human; conditions: for GI%: SF-539, 10 μM; for Growth Percent: SF-539, 1.00E-5 Molar
SR = assay type: cell-based, human; conditions: for GI%: 10 μM; for Growth Percent: 1.00E-5 Molar
SN12C = assay type: cell-based, human; conditions: for GI%: 10 μM; for Growth Percent: 1.00E-5 Molar; for CC50: read-out: LC50 (the source's name)
EKVX = assay type: cell-based, human; conditions: for GI%: 10 μM; for Growth Percent: 1.00E-5 Molar; for GI50 / LC50 (concentration killing 50% of cells) / TGI: 5-dose
SNB-19 = assay type: cell-based, human; conditions: for GI%: SNB-19, 10 μM; for Growth Percent: SNB-19, 1.00E-5 Molar; for CC50: read-out: LC50 (the source's name)
UO-31 = assay type: cell-based, human; conditions: for GI%: UO-31, 10 μM; for Growth Percent: UO-31, 1.00E-5 Molar; for CC50: read-out: LC50 (the source's name)
SF-268 = assay type: cell-based, human; conditions: for GI%: SF-268, 10 μM; for Growth Percent: SF-268, 1.00E-5 Molar; for CC50: read-out: LC50 (the source's name)
RXF 393 = assay type: cell-based, human; conditions: for CC50: read-out: LC50 (the source's name)
[1] = Homo sapiens, SN12C, SN 12 C, 5-dose
[2] = Homo sapiens, SNB-19, SNB-19, 5-dose
[3] = Homo sapiens, UO-31, UO-31, 5-dose

Cc1ccc(-c2nc(Nc3ccc(C(=O)O)cc3)c3ccccc3n2)cc1 [8b, 4-((2-(p-Tolyl)quinazolin-4-yl)amino)benzoic acid]
GI% (A498): – (Only GI% higher than 20% are shown)
Growth Percent (A498): 112.03%
GI% (NCI-H460): – (Only GI% higher than 20% are shown)
Growth Percent (NCI-H460): 82.06%
GI% (CAKI-1): – (Only GI% higher than 20% are shown)
Growth Percent (CAKI-1): 88.42%
Growth Percent (MDA-MB-231; MDA-MB-231/ATCC): 87.83%
GI% (SF-539): 21%
Growth Percent (SF-539): 78.63%
GI% (SR): 38%
Growth Percent (SR): 61.50%
GI% (SN12C; SN12C): 51%
Growth Percent (SN12C; SN12C): 48.99%
GI% (EKVX): 28%
Growth Percent (EKVX): 72.41%
GI% (SNB-19): 29%
Growth Percent (SNB-19): 70.92%
GI% (UO-31): 58%
Growth Percent (UO-31): 41.73%
GI% (SF-268): 30%
Growth Percent (SF-268): 70.34%

Cc1ccc(-c2nc(Nc3cccc(C(=O)O)c3)c3ccccc3n2)cc1 [7b, 3-((2-(p-Tolyl)quinazolin-4-yl)amino)benzoic acid]
GI% (A498): – (Only GI% higher than 20% are shown)
Growth Percent (A498): 95.15%
GI% (NCI-H460): – (Only GI% higher than 20% are shown)
Growth Percent (NCI-H460): 97.53%
GI% (CAKI-1): – (Only GI% higher than 20% are shown)
Growth Percent (CAKI-1): 82.90%
Growth Percent (MDA-MB-231; MDA-MB-231/ATCC): 95.55%
GI% (SF-539): 27%
Growth Percent (SF-539): 73.18%
GI% (SR): 41%
Growth Percent (SR): 58.68%
GI% (SN12C; SN12C): 23%
Growth Percent (SN12C; SN12C): 76.64%
GI% (EKVX): 41%
Growth Percent (EKVX): 58.70%
GI% (SNB-19): 28%
Growth Percent (SNB-19): 71.76%
GI% (UO-31): 51%
Growth Percent (UO-31): 48.97%
GI% (SF-268): 31%
Growth Percent (SF-268): 69.32%

Cc1ccc(-c2nc(Nc3ccccc3C(=O)O)c3ccccc3n2)cc1 [6b, 2-((2-(p-Tolyl)quinazolin-4-yl)amino)benzoic acid]
GI% (A498): 78%
Growth Percent (A498): 21.64%
TGI (A498; A498, 5-dose): 58.1 µM
TGI (A498; A498, 5-dose, listed as D - 835857): 5.81E-5 Molar
CC50 (A498; A498, 5-dose): < 100 µM
CC50 (A498; Homo sapiens, A498, A498, 5-dose): > 100 µM
GI50 (A498; Homo sapiens, A498, 5-dose): 19.9 µM
GI50 (NCI-H460; Homo sapiens, NCI-H460, NCI-H460, 5-dose): 8.52 µM
LC50 (concentration giving 50% net cell kill) (NCI-H460; Homo sapiens, NCI-H460, 5-dose): 84 µM
GI% (NCI-H460): 109%
Growth Percent (NCI-H460): -9.44%
GI50 (NCI-H460; NCI-H460, 5-dose): 8.5 µM
TGI (NCI-H460; NCI-H460, 5-dose): 27.7 µM
TGI (NCI-H460; NCI-H460, 5-dose, listed as D - 835857): 2.77E-5 Molar
GI% (CAKI-1): 79%
Growth Percent (CAKI-1): 21.08%
TGI (CAKI-1; CAKI-1, 5-dose): <100 µM
TGI (CAKI-1; CAKI-1, 5-dose, listed as D - 835857): > 1.00E-4 Molar
CC50 (CAKI-1; CAKI-1, 5-dose): < 100 µM
CC50 (CAKI-1; Homo sapiens, CAKI-1, CAKI-1, 5-dose): > 100 µM
GI50 (CAKI-1; Homo sapiens, CAKI-1, 5-dose): 13.8 µM
GI50 (MDA-MB-231; Homo sapiens, MDA-MB-231): 17.2 µM
CC50 (MDA-MB-231; Homo sapiens, MDA-MB-231, MDA-MB-231, 5-dose): < 100 µM
CC50 (MDA-MB-231; Homo sapiens, MDA-MB-231, MDA-MB-231/ATCC, 5-dose): > 100 µM
GI% (MDA-MB-231): 65%
TGI (MDA-MB-231; MDA-MB-231, 5-dose): 59.7 µM
Growth Percent (MDA-MB-231; MDA-MB-231/ATCC): 35.40%
TGI (MDA-MB-231; MDA-MB-231/ATCC, 5-dose): 5.97E-5 Molar
GI50 (SF-539; Homo sapiens, SF-539, 5-dose): 11.9 µM
CC50 (SF-539; Homo sapiens, SF-539, 5-dose, read-out: LC50 (the source's name)): 67.2 µM
GI% (SF-539): 79%
Growth Percent (SF-539): 21.26%
TGI (SF-539; SF-539, 5-dose): 28.3 µM
TGI (SF-539; SF-539, 5-dose, listed as D - 835857): 2.83E-5 Molar
GI% (SR): 81%
Growth Percent (SR): 18.56%
LC50 (50% lethal concentration) (SR; 5-dose): < 100 µM
TGI (SR; 5-dose): <100 µM
TGI (SR; 5-dose, listed as D - 835857): > 1.00E-4 Molar
GI50 (SR; Homo sapiens, 5-dose): 10.3 µM
LC50 (50% lethal concentration) (SR; Homo sapiens, 5-dose): > 100 µM
CC50 (SN12C; Homo sapiens, SN12C, 5-dose): > 100 µM
CC50 (SN12C; [1]): < 100 µM
GI50 (SN12C; [1]): 11 µM
GI% (SN12C; SN12C): 78%
Growth Percent (SN12C; SN12C): 22.24%
TGI (SN12C; SN 12 C, 5-dose): 60.4 µM
TGI (SN12C; SN12C, 5-dose): 6.04E-5 Molar
GI% (EKVX): 87%
Growth Percent (EKVX): 13.07%
GI50 (EKVX): 8.9 µM
LC50 (concentration killing 50% of cells) (EKVX): < 100 µM
TGI (EKVX): 56.2 µM
TGI (EKVX; listed as D - 835857): 5.62E-5 Molar
GI50 (EKVX; Homo sapiens): 8.89 µM
LC50 (concentration killing 50% of cells) (EKVX; Homo sapiens): > 100 µM
GI50 (SNB-19; [2]): 8.09 µM
CC50 (SNB-19; [2]): > 100 µM
GI% (SNB-19): 91%
Growth Percent (SNB-19): 8.82%
GI50 (SNB-19; SNB-19, 5-dose): 8.1 µM
TGI (SNB-19; SNB-19, 5-dose): 81.7 µM
TGI (SNB-19; SNB-19, 5-dose, listed as D - 835857): 8.17E-5 Molar
CC50 (SNB-19; SNB-19, 5-dose): < 100 µM
CC50 (RXF 393; Homo sapiens, RXF 393, RXF 393, 5-dose): > 100 µM
GI50 (RXF 393; Homo sapiens, RXF 393, 5-dose): 13.1 µM
TGI (RXF 393; RXF 393, 5-dose): 65.9 µM
TGI (RXF 393; RXF 393, 5-dose, listed as D - 835857): 6.59E-5 Molar
CC50 (RXF 393; RXF 393, 5-dose): < 100 µM
GI50 (UO-31; [3]): 7.33 µM
CC50 (UO-31; [3]): > 100 µM
GI% (UO-31): 87%
Growth Percent (UO-31): 12.56%
GI50 (UO-31; UO-31, 5-dose): 7.3 µM
TGI (UO-31; UO-31, 5-dose): 77.9 µM
TGI (UO-31; UO-31, 5-dose, listed as D - 835857): 7.79E-5 Molar
CC50 (UO-31; UO-31, 5-dose): < 100 µM
CC50 (SF-268; Homo sapiens, SF-268, SF-268, 5-dose): > 100 µM
GI50 (SF-268; Homo sapiens, SF-268, 5-dose): 14.3 µM
GI% (SF-268): 89%
Growth Percent (SF-268): 11.24%
TGI (SF-268; SF-268, 5-dose): <100 µM
TGI (SF-268; SF-268, 5-dose, listed as D - 835857): > 1.00E-4 Molar
CC50 (SF-268; SF-268, 5-dose): < 100 µM

Cc1cccc(-c2nc(Nc3ccccc3C(=O)O)c3ccccc3n2)c1 [6a, 2-((2-(m-Tolyl)quinazolin-4-yl)amino)benzoic acid]
GI% (A498): 52%
Growth Percent (A498): 47.56%
GI% (NCI-H460): 81%
Growth Percent (NCI-H460): 19.15%
GI% (CAKI-1): 48%
Growth Percent (CAKI-1): 52.39%
GI% (MDA-MB-231): 34%
Growth Percent (MDA-MB-231; MDA-MB-231/ATCC): 66.08%
GI% (SF-539): 52%
Growth Percent (SF-539): 47.66%
GI% (SR): 77%
Growth Percent (SR): 23.03%
GI% (SN12C; SN12C): 59%
Growth Percent (SN12C; SN12C): 40.74%
GI% (EKVX): 79%
Growth Percent (EKVX): 20.98%
GI% (SNB-19): 79%
Growth Percent (SNB-19): 21.25%
GI% (UO-31): 69%
Growth Percent (UO-31): 31.01%
Growth Percent (SF-268): 37.50%

Cc1cccc(-c2nc(Nc3ccc(C(=O)O)cc3)c3ccccc3n2)c1 [8a, 4-((2-(m-Tolyl)quinazolin-4-yl)amino)benzoic acid]
GI% (A498): 54%
Growth Percent (A498): 45.68%
GI% (NCI-H460): 22%
Growth Percent (NCI-H460): 78.01%
GI% (CAKI-1): – (Only GI% higher than 20% are shown)
Growth Percent (CAKI-1): 94.53%
Growth Percent (MDA-MB-231; MDA-MB-231/ATCC): 93.31%
GI% (SF-539): – (Only GI% higher than 20% are shown)
Growth Percent (SF-539): 91.50%
GI% (SR): 32%
Growth Percent (SR): 67.75%
GI% (SN12C; SN12C): 42%
Growth Percent (SN12C; SN12C): 58.07%
GI% (EKVX): – (Only GI% higher than 20% are shown)
Growth Percent (EKVX): 82.93%
GI% (SNB-19): 33%
Growth Percent (SNB-19): 67.24%
GI% (UO-31): 54%
Growth Percent (UO-31): 45.85%
GI% (SF-268): 37%
Growth Percent (SF-268): 62.51%

COc1ccc(-c2nc(Nc3ccccc3C(=O)O)c3ccccc3n2)cc1 [6c, 2-((2–(4-Methoxyphenyl)quinazolin-4-yl)amino)benzoic acid]
GI% (A498): 41%
Growth Percent (A498): 58.92%
GI% (NCI-H460): 89%
Growth Percent (NCI-H460): 11.57%
GI% (CAKI-1): 53%
Growth Percent (CAKI-1): 46.89%
GI% (SF-539): 37%
Growth Percent (SF-539): 63.06%
Growth Percent (SN12C; SN12C): 47.71%
GI% (EKVX): 66%
Growth Percent (EKVX): 33.92%
GI% (SNB-19): 55%
Growth Percent (SNB-19): 45.59%
Growth Percent (RXF 393; RXF 393, 1.00E-5 Molar): 68.31%
GI% (SF-268): 43%
Growth Percent (SF-268): 56.93%
